In patent US8952024B2, “Herbicidal pyrimidone derivatives” (E I du Pont de Nemours and Company, priority 2009, dated 2015):

Key:
Assay in all cases: Test B pre-/postemergence plant response
Format in all cases: in vivo
[1] = tested on: downy bromegrass (Bromus tectorum)
Summary of the method: (§1)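 Visual injury, 0–100 scale (100 = complete control), rated against controls after 13 to 15 days in greenhouse. Pre-emergence: seeds in loam/sand soil, treated at planting. Post-emergence: 1- to 4-leaf plants (2 to 18 cm) in peat/vermiculite medium. Compounds formulated in non-phytotoxic solvent with surfactant.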

[2] = tested on: ragweed (common ragweed, Ambrosia elatior)
Summary of the method: as §1

[3] = tested on: Surinam grass (Brachiaria decumbens)
Summary of the method: as §1

kochia (Kochia scoparia) = conditions: Postemergence; for Plant response rating, Kochia: scale 0 (no effect) to 100 (complete control)
Summary of the method: as §1

[4] = tested on: Italian ryegrass (Lolium multiflorum)
Summary of the method: as §1

corn (Zea mays) = tested on: corn (Zea mays)
Summary of the method: as §1

[5] = tested on: woolly cupgrass (Eriochloa villosa)
Summary of the method: as §1

soybean (Glycine max) = tested on: soybean (Glycine max)
Summary of the method: as §1

[6] = tested on: johnsongrass (Sorghum halepense)
Summary of the method: as §1

[7] = tested on: blackgrass (Alopecurus myosuroides)
Summary of the method: as §1

[8] = tested on: giant foxtail (Setaria faberii)
Summary of the method: as §1

[9] = tested on: pigweed (Amaranthus retroflexus)
Summary of the method: as §1

[10] = tested on: velvetleaf (Abutilon theophrasti)
Summary of the method: as §1

[11] = 250 g ai/ha, Preemergence, 0 to 100 scale
[12] = Postemergence, 31 g ai/ha, scale 0 to 100 (0 no effect, 100 complete control)
[13] = Postemergence, 62 g ai/ha, scale 0 (no effect) to 100 (complete control), 13 to 15 days
[14] = Postemergence, 125 g ai/ha, visual rating after 13 to 15 days, scale 0 (no effect) to 100 (complete control)
[15] = Postemergence, 250 g ai/ha, scale 0 to 100
[16] = Preemergence, 31 g ai/ha, scale 0 to 100 (0 no effect, 100 complete control)
[17] = Preemergence, 62 g ai/ha, scale 0 to 100 (0 no effect, 100 complete control)
[18] = Preemergence, 125 g ai/ha, 0 to 100 scale

O=C1CCCC(O)=C1C(=O)c1cnc(-c2ccccc2)n(-c2cccc(Br)c2)c1=O [Compound 38]
Plant response rating, Bromegrass, Downy [1, 11]: 40
Plant response rating, Bromegrass, Downy [1, 12]: 50
Plant response rating, Bromegrass, Downy [1, 13]: 70
Plant response rating, Bromegrass, Downy [1, 14]: 85
Bromegrass, Downy plant response rating [1, 15]: 85
Plant response rating, Bromegrass, Downy [1, 16]: 0
Plant response rating, Bromegrass, Downy [1, 17]: 0
Bromegrass, Downy plant response rating [1, 18]: 5
Plant response rating, Ragweed [2, 11]: 95
Plant response rating, Ragweed [2, 13]: 80
Plant response rating, Ragweed [2, 14]: 80
Plant response rating, Ragweed [2, 16]: 40
Ragweed plant response rating [2, 18]: 80
Plant response rating, Surinam Grass [3, 11]: 80
Plant response rating, Surinam Grass [3, 13]: 85
Plant response rating, Surinam Grass [3, 14]: 90
Plant response rating, Surinam Grass [3, 16]: 40
Surinam Grass plant response rating [3, 18]: 65
Plant response rating, Kochia (kochia (Kochia scoparia); 62 g ai/ha, 13 to 15 days): 80
Plant response rating, Kochia (kochia (Kochia scoparia); 125 g ai/ha, visual rating after 13 to 15 days): 100
Kochia plant response rating (kochia (Kochia scoparia); 250 g ai/ha, scale 0 to 100): 100
Plant response rating, Ryegrass, Italian [4, 11]: 40
Plant response rating, Ryegrass, Italian [4, 13]: 50
Plant response rating, Ryegrass, Italian [4, 14]: 60
Plant response rating, Ryegrass, Italian [4, 16]: 0
Ryegrass, Italian plant response rating [4, 18]: 5
Plant response rating, Corn (corn (Zea mays); [11]): 0
Plant response rating, Corn (corn (Zea mays); [12]): 55
Plant response rating, Corn (corn (Zea mays); [13]): 70
Plant response rating, Corn (corn (Zea mays); [14]): 75
Corn plant response rating (corn (Zea mays); [15]): 90
Plant response rating, Corn (corn (Zea mays); [16]): 0
Plant response rating, Corn (corn (Zea mays); [17]): 0
Corn plant response rating (corn (Zea mays); [18]): 0
Plant response rating, Cupgrass, Woolly [5, 11]: 80
Plant response rating, Cupgrass, Woolly [5, 12]: 80
Plant response rating, Cupgrass, Woolly [5, 13]: 90
Plant response rating, Cupgrass, Woolly [5, 14]: 95
Cupgrass, Woolly plant response rating [5, 15]: 100
Plant response rating, Cupgrass, Woolly [5, 16]: 0
Plant response rating, Cupgrass, Woolly [5, 17]: 10
Cupgrass, Woolly plant response rating [5, 18]: 60
Plant response rating, Soybean (soybean (Glycine max); [11]): 75
Plant response rating, Soybean (soybean (Glycine max); [13]): 85
Plant response rating, Soybean (soybean (Glycine max); [14]): 90
Plant response rating, Soybean (soybean (Glycine max); [16]): 0
Soybean plant response rating (soybean (Glycine max); [18]): 0
Plant response rating, Johnsongrass [6, 11]: 95
Plant response rating, Johnsongrass [6, 13]: 75
Plant response rating, Johnsongrass [6, 14]: 95
Johnsongrass plant response rating [6, 15]: 100
Plant response rating, Johnsongrass [6, 16]: 10
Plant response rating, Johnsongrass [6, 17]: 80
Johnsongrass plant response rating [6, 18]: 85
Plant response rating, Blackgrass [7, 11]: 40
Plant response rating, Blackgrass [7, 12]: 5
Plant response rating, Blackgrass [7, 13]: 15
Plant response rating, Blackgrass [7, 14]: 15
Blackgrass plant response rating [7, 15]: 40
Plant response rating, Blackgrass [7, 16]: 0
Plant response rating, Blackgrass [7, 17]: 5
Blackgrass plant response rating [7, 18]: 30
Plant response rating, Foxtail, Giant [8, 11]: 95
Plant response rating, Foxtail, Giant [8, 12]: 95
Plant response rating, Foxtail, Giant [8, 13]: 98
Plant response rating, Foxtail, Giant [8, 14]: 100
Foxtail, Giant plant response rating [8, 15]: 100
Plant response rating, Foxtail, Giant [8, 16]: 0
Plant response rating, Foxtail, Giant [8, 17]: 40
Foxtail, Giant plant response rating [8, 18]: 80
Plant response rating, Pigweed [9, 11]: 100
Plant response rating, Pigweed [9, 13]: 98
Plant response rating, Pigweed [9, 14]: 98
Plant response rating, Pigweed [9, 16]: 100
Pigweed plant response rating [9, 18]: 100
Plant response rating, Velvetleaf [10, 11]: 100
Plant response rating, Velvetleaf [10, 13]: 100
Plant response rating, Velvetleaf [10, 14]: 100
Plant response rating, Velvetleaf [10, 16]: 55
Velvetleaf plant response rating [10, 18]: 98
